Data taken from patent publication US20230277491A1, “PHARMACEUTICAL COMBINATION COMPRISING GLYCOLIC ACID AND L-ALANINE” (priority 2020, published 2023).

Columns and labels:
[1] = test system: dopaminergic neurons; experiment: Survival of dopaminergic neurons with paraquat 25 μM challenge (Example 1, FIG. 1); type: cell-based, mouse
Protocol: Dopaminergic neurons were isolated and plated at a concentration of 1.000.000 cells/ml (100 μl/well) in a 96 well plate and cultured in medium with one or more of the various factors indicated, as described in the examples below. The survival of dopaminergic neurons in the presence and absence of various agents of the invention, either with or without paraquat challenge, is shown by the number of TH positive neurons normalized to the control treatment.
Dopaminergic neurons were isolated and plated at a concentration of 1.000.000 cells/ml (100 μl/well) in a 96 well plate. After 3-4 hours incubation at 37° C., 20 μl of medium was removed from each well. (VF=80 μl). Changes in medium and start point of the treatment were done in the following day in vitro (DIV). The following protocol was employed in order to assess the survival of dopaminergic neurons in the presence and absence of various agents of the invention combination, either with or without paraquat challenge. • DIV.1: Change half of medium N2 (40 μl) with fresh medium N2. • DIV.3: Change half of the medium and start with medium (control) or with medium A containing LA (different concentrations) and/or GA (normally 5 mM or 10 mM). Medium A is N2 medium but without FBS and N2-Supplement. • DIV.5: Second round of control or treatment with LA and/or GA. Half of the medium (40 μl) was replaced by fresh medium A with the different agents. • DIV.7: Paraquat 25 μM treatment starts with or without GA and L-alanine. Half of the medium (40 μl) was replaced by fresh medium A with the different treatment combinations or without (control). • DIV.9: Second day of treatment with Paraquat (PQ) 25 μM in addition to the other substances (LA and GA). • DIV.10: Fixation 2% of PFA during 20 min at 37° C. or overnight at 4° C.
Primary mesencephalic neuronal cell cultures were prepared as previously described. Briefly, E14.5 embryos were obtained from C57JBL6 pregnant mice after cervical dislocation. Brain mesencephali were dissected under the microscope and digested with Trypsin-EDTA 0.12% (Life Technologies, USA) for 7 min. The trypsin reaction was then stopped by adding basic medium (BM), containing Neurobasal A medium (Gibco, USA), 1 mg/mL Pen/Strep, 10% FCS, and […] L-Glutamine, and cells were mechanically dissociated using a fire-polished Pasteur pipette. Medium was fully replaced after 5 min, centrifugation at 1200 rpm, aspiring the supernatant and adding 8 mL of fresh BM to the pellet. Concentration of cells in the medium was estimated using a Neubauer chamber and a 100 μL of medium containing 10^6 cells/mL plated per well in a 96-well plate (Greiner Sensoplate, Germany, EU). Then a 20 μL of medium was removed from the well and 24 h later, ⅓ of the media was replaced with fresh BM. […]

[2] = human, in vivo, 15 weeks
Text: Potential side effects were closely monitored.

[3] = male Wistar rats; cited from earlier work
[4] = test system: HeLa cells treated with siRNA against PARK-7/DJ-1; experiment: Calcium imaging on HeLa cells during mitosis after PARK-7/DJ-1 down-regulation; type: cell-based; conditions: PARK-7/DJ-1 down-regulated HeLa cells, 5 mM, FIG. 17
Protocol: HeLa cells were loaded with Fluo-4 AM, a dye used to measure calcium concentration in living cells, as described by the manufacturer and recorded for 4 hours. Graphics show the variations in intracellular calcium concentration during mitosis in WT and cells treated with siRNA against PARK-7/DJ-1 to down-regulate this gene.
HeLa-Kyoto cells stably expressing histone H2B-mCherry and mouse DJ-1 were used. Cells were maintained in DMEM supplemented with 10% fetal bovine serum (FBS), 2 mM GlutaMAX, 100 unit/ml penicillin, 100 μg/ml streptomycin. For esiRNA treatment, cells were plated at a density of 15.000 cells/well in an ibidi 8 well chamber (Cat. no 80826, ibidi, Germany, EU), transfected with different esiRNAs (RLUC as empty vector, hPARK-7 and hKIF11 as positive control) (all esiRNAs were obtained from Eupheria, Germany, EU), and left for 72 hours before performing calcium imaging. esiRNA transfection was performed as follows. esiRNA was diluted in distilled water to a concentration of 20 ng/μl. For each well, two solutions were made: 1. […]
We observed that the Fluo-4 AM dye started to leak out of the cells into the medium after 1.5 hours of imaging. […] Images were analyzed using FIJI Image Analysis Freeware (https://fiji.sc). MFI of the Fluo-4 AM signal within the cell was determined using manually selected ROIs covering the whole cell area for each time-point. […]

[5] = test system: HeLa cells; experiment: NAD(P)H live-cell microscopy; type: cell-based; conditions: 5 mM, FIG. 13
Protocol: All values were referenced to the value obtained before substance addition.
NAD(P)H live-cell microscopy on HeLa cells was performed as previously described. Briefly, NAD(P)H fluorescence intensity time series were performed on a ZEISS LSM880 inverted confocal equipped with an incubation chamber to maintain 37 Celsius degree and 5% of CO2. […] In order to maximize the transmission efficiency of the system in excitation and detection and reduce the aberrations due to the watery environment, a ZEISS Plan C-ApoChromat 40×/1.2 Water lens with depth compensating correction collar was used. […] The sampling factor in XY (pixel size) of each image was equal to 208 nm, which lead to a final resolution of approximately 600 nm. For each image a volume of 5 μm around the specimen central plane was taken by acquiring 3 planes separated by a Z-step of 2.5 μm.
Time series measurements were obtained with 5 min time resolution. Fluorescence intensity levels were extracted using FIJI Image Analysis Freeware

[6] = test system: patients with ALS; experiment: Individualised clinical trials in ALS patients: therapeutic effect (creatine kinase, gripping force, muscle strength); conditions: human patients, in some cases
Protocol: Gripping force measured in kilograms with the help of a Digital Hand Dynamometer once a week to every two weeks.
Evolution of the muscle strength on the right arm was measured once a week to every two weeks using the Janda Muscle Strength Scale.
Patients with ALS were recruited for the study and agreed to all legal regulations surrounding the curative attempt. Potential side effects were closely monitored. Liver and kidney values were checked once a week (1 day after dosing), in order to monitor whether any unwanted side effects were observed. To test the therapeutic effect, the evolution of the ALS score and strength evolution were measured over time.
All patients also received 6 grams of L-Alanine per day.
The above-mentioned treatment regime was conducted in 4 patients, either with FUS, TARDBP or SOD-1 mutations underlying their ALS. […] The patients were treated between 4 months and 17 months.

O=C(O)CO [GA, 2-hydroxyethanoic acid]
survival of dopaminergic neurons (rescue) ([1]; 5 mM GA with PQ 25 μM): rescue over PQ treatment alone
survival of dopaminergic neurons (rescue) ([1]; 10 mM GA with PQ 25 μM): rescued completely
GA dose at which reactive instant feces deposition was observed [2]: above 120 mg/kg
GA dose leading to reactive instant feces deposition [2]: higher than 150 mg/kg
kidney findings after administration [3]: formation of hyperoxaluria and calcium oxalate precipitates
calcium influx during mitosis [4]: able to rescue this phenotype
mitochondrial NAD(P)H production [5]: increases mitochondrial NAD(P)H production
GA dose at which efficacious doses were first observed [6]: above 70 mg/kg
